One data set has as its system MDA-MB-468. The data set is described as follows: Cytotoxicity, MTT assay. As to conditions: read-out: IC50 (cytotoxicity), MDA-MB-468 cells, 72 hours. A general note: Formazan colour is commonly taken as a measure of viable cells.
The nature of data set [1]: Catalytic CuAAC reaction in water (phenylacetylene, benzyl azide), conversion by GC.
The nature of data set [2]: Cyclic voltammetry, oxidation potential. In kind it is physicochemical.
A further data set has as its system SUM-159. The data set is described as follows: Cytotoxicity, MTT assay. As to conditions: SUM-159 cells, 72 hours. It is filed as cell-based. As for the experimental part: FIG. 5 is a-b) Effect of 6 and 7 on cell viability in TNBC cells treated with the complexes for 72 hours. Mean±s.e.m. n=3. c) Structure of AuDTC-alkyne used for click experiment.
We first evaluated the cytotoxicity of the complexes (6 and 7) in triple-negative breast cancer cells, MDA-MB-468 and SUM-159 using MTT assay.

A further data set relates to MDA-MB-468 cells. The data set can be described thus: Intracellular Cu(I)-catalyzed click chemistry and mitochondria colocalization, confocal microscopy. It is filed as cell-based. The note with it: 100 μM catalyst, no THPTA or ascorbate.
A short description of data set [3]: Stability of the complex to air, moisture and H2O2 (colour, EPR, UV-visible spectroscopy). In kind it is physicochemical. The note with it: for Colour change in the presence of air or moisture: over the course of weeks, solid or solution. Here is the method: FIG. 2 illustrates Left: UV-vis absorbance spectra of 3+(CH3CN)4CuPF6 in H2O after 18 hours with 5 molar equivalents of H2O2. Right: UV-vis absorbance spectra after addition of N-methylimidazole to 3+(CH3CN)4CuPF6+5 molar equivalents of H2O2 in H2O after 18 hours incubation.
One of the most important aspects of catalysts for the biologically compatible CuAAC reaction is the ability to perform the reaction while not forming any ROS. Most Cu (I) complexes can be rapidly oxidized by oxygen to Cu (II) and form O2—, one of the first ROS that can then go on to react in myriad ways. […] To further verify this, we performed EPR measurements on solutions of 6 in the absence and presence of H2O2.
We then tested the chemical oxidation of solutions of 7 by UV-visible spectroscopy […]. Increasing amounts of H2O2 were added and the absorption spectrum was measured (FIG. 2).
Without the addition of oxidant, an absorption peak at 280 nm is the lowest energy feature in the spectrum. Aqueous solutions of Cu^2+ ions absorb visible light, typically due to low energy d-d transitions. Therefore, if Cu^2+ was formed, we would expect to observe the appearance of a new absorption in the visible region.

Setting [4] is: catalyst concentration 20 mM, room temperature, 4 hr, average of two runs.
Where [5] appears, read: CH2Cl2, glassy carbon working electrode.

A value given as a limit tells only on which side of the number the result lay.

From US20250002465A1, “TRIMERIC COPPER CATALYSTS, INTERMEDIATES FOR MAKING SUCH CATALYSTS AND METHOD FOR PREPARING A CYCLOADDITION COMPOUND” (University of Kentucky Research Foundation, priority 2023, published 2025) come the findings set out here.

As to `OCCCn1cc(CN(Cc2cn(CCCO)nn2)Cc2cn(CCCO)nn2)nn1.[Cu]` [THPTA, Cu tris-(hydroxypropyltriazolyl)-methylamine, reference compound], the IC50 with MDA-MB-468 came to 22.4 µM.

Regarding `c1ccc2[nH]c([C@H]3C[C@@H](c4nc5ccccc5[nH]4)C[C@@H](c4nc5ccccc5[nH]4)C3)nc2c1` [compound 1, Cis,cis-1,3,5-cyclohexanetribenzimidazole-2-yl], the Conversion in data set [1] (setting [4]) is recorded as ~18%.

Consider `CCCCn1c2ccccc2nc1[C@H]1C[C@@H](c2nc3ccccc3n2CCCC)C[C@@H](c2nc3ccccc3n2CCCC)C1` [compound 2, Cis,cis-1,3,5-cyclohexanetribenzimidazole-1-butyl-2-yl], for which, in data set [1] (setting [4]), the Conversion entry is listed as “nearly quantitative”.

`COCCOCCn1c2ccccc2nc1[C@H]1C[C@@H](c2nc3ccccc3n2CCOCCOC)C[C@@H](c2nc3ccccc3n2CCOCCOC)C1` [compound 3, Cis,cis-1,3,5-cyclohexanetribenzimidazole-1-(2-(2-methoxyethoxy)ethyl)-2-yl]: the Conversion entry in data set [1] (setting [4]) is on record as “nearly quantitative”. The Oxidation wave result in data set [2] (setting [5]) is listed as “irreversible oxidation near the same potential”.

Turning to “(Cis,cis-1,3,5-cyclohexanetribenzimidazole-1-(2-(2-methoxyethoxy)ethyl)-2-yl)2(Cu(I)PF6)3 [compound 7]”, the values for the IC50 in the data set with MDA-MB-468 and in the data set with SUM-159 were 78.6 µM and > 100 µM, respectively. For the same compound, the Conversion is on record as 75% in data set [1] (50 mM loading, water, 35° C., 1 hour); 33% in data set [1] (catalyst concentration 0.5 μM, water, 35° C., 18 hr); 6% in data set [1] (catalyst concentration 0.5 μM, water, ambient conditions, 18 hours); 64% in data set [1] (catalyst concentration 1.0 μM, water, 35° C., 18 hr); 8% in data set [1] (catalyst concentration 1 μM, water, ambient conditions, 18 hours); ~88% in data set [1] (catalyst concentration 5 μM, water, 35° C., 18 hr). Moreover, the Conversion in data set [1] (catalyst concentration 5 μM, water, ambient conditions, 18 hours) is ~13%; in data set [1] (catalyst concentration 10 μM, water, 35° C., 18 hr), “quantitative”; in data set [1] (catalyst concentration 10 μM, water, ambient conditions, 18 hours) it was ~13%; in data set [1] (catalyst concentration 50 μM, water, ambient conditions, 18 hours) it was ~36%. Besides, the Oxidation wave entry is on record as “did not observe an oxidation wave” in data set [2] (0.1 M LiClO4 in H2O, Hg/Hg2SO4 reference) and 1.85 V vs SCE in data set [2] (setting [5]). Further, the “Irreversible reduction wave (Cu+/Cu0)” value in data set [2] (CH2Cl2) is ~0 V vs. SCE. Besides, the “Click reaction between AuDTC-alkyne and azide fluorescein in cells” value in the data set on MDA-MB-468 cells was “effectively catalyzed”. For the same compound, in data set [3] (in-situ formed 7, five equivalents of H2O2 plus N-methylimidazole), the “Change of UV-visible absorption spectrum with N-methylimidazole and H2O2” value was “no change in the absorption spectrum”. For the same compound, the “Colour change in the presence of air or moisture” value in data set [3] is “did not change color”. The “Change of UV-visible absorption spectrum with H2O2” value in data set [3] (up to five molar equivalents of peroxide, 18 hours, room temperature) was “no appreciable change in the absorption spectrum”.

With “(Cis,cis-1,3,5-cyclohexanetribenzimidazole-1-butyl-2-yl)2(Cu(I)PF6)3 [compound 6]”, the figures for the IC50 with MDA-MB-468 and in the data set with SUM-159 were 46.7 µM and 84.1 µM, respectively. Moreover, the Conversion in data set [1] (setting [4]) is listed as 98%. Besides, in data set [3], the “Colour change in the presence of air or moisture” value is listed as “did not change color”. For the same compound, the “EPR active species (Cu2+) after H2O2 addition” value in data set [3] (solution, EPR) is reported as “no EPR active species”.

By IC50 is commonly meant the concentration needed to halve the response being measured.
